Data from patent US20220105170A1 (priority 2019, published 2022).
“And” between values parts separate entries of the source, which are not always exact repeats. Equal entries are not always repeated.

Tested on: peripheral blood lymphocytes collected from swine exposed to ASFV
Assay type: cell-based

Substance	Number of Spots
1111 (RTDFVWVADL) [compound 1111]	13
1120 (SLPDVSTLPY) [compound 1120]	13
1127 (RALKMYEDYY) [compound 1127]	12
1129 (IMDDLVEEY) [compound 1129]	14
1139 (ALANTSANY) [compound 1139]	12
1141 (ILAEYVYSY) [compound 1141]	18
1150 (KSQDTLHRF) [compound 1150]	12
1151 (NLSEVVTAY) [compound 1151]	16
1159 (MAEIRFLSM) [compound 1159]	12
1172 (RCQHHAFSY) [compound 1172]	12
1184 (LSDLRNFSF) [compound 1184]	16
1187 (FSEHTKFFSY) [compound 1187]	15 and 16
1188 (VSNILHSVF) [compound 1188]	13
1196 (KEMQDYSLTF) [compound 1196]	17
1204 (MQDYSLTF) [compound 1204]	17
1205 (QDYSLTFLLK) [compound 1205]	17
1207 (DYSLTFLLKK) [compound 1207]	17
1212 (TFLLKKRMEL) [compound 1212]	19
1227 (ETYARLSSY) [compound 1227]	12
1228 (SSYNRSLLH) [compound 1228]	15
1264 (RINRNYYPYYI) [compound 1264]	12
1265 (INRNYYPYY) [compound 1265]	12
1278 (NYYPYYIY) [compound 1278]	16
1279 (YPYYIYKIF) [compound 1279]	12
1287 (VHFNAHFKPY) [compound 1287]	14
1288 (HFNAHFKPY) [compound 1288]	16

Substance	Number of Spots
1295 (SQMGAHGQL) [compound 1295]	17
1296 (HGQLQTFPR) [compound 1296]	16
1345 (RVRFSLIRV) [compound 1345]	16
1347 (LMSALKWPI) [compound 1347]	17
1348 (LMSALKWPIEY) [compound 1348]	12
1370 (GAMMITFAL) [compound 1370]	14
1372 (NVSRAREFY) [compound 1372]	12
1375 (RAREFYISW) [compound 1375]	15
1379 (VVSASAINF) [compound 1379]	13
1388 (LVYELPAPF) [compound 1388]	14
1390 (QQMLTRHIY) [compound 1390]	12
1394 (SSFKCWTCHLY) [compound 1394]	14
1400 (KESAETIYTF) [compound 1400]	14
1413 (ISSMSVSTFW) [compound 1413]	12
1436 (NKANKAFYI) [compound 1436]	13
1437 (KANKAFYINH) [compound 1437]	12 and 16
1454 (INHLYKFLL) [compound 1454]	12 and 18
1459 (KITSVTEFY) [compound 1459]	19
1461 (YTLLSPLQSY) [compound 1461]	13 and 17
1468 (ITYLNNMGY) [compound 1468]	13
1472 (KVDLPYHLM) [compound 1472]	16
1483 (KTIKHYEQL) [compound 1483]	12
1484 (GTSYLRMAY) [compound 1484]	14
1488 (STQFMIQYF) [compound 1488]	13
1491 (MIADAINQEF) [compound 1491]	13
1499 (AVNLLRQTF) [compound 1499]	14

Substance	Number of Spots
1501 (ALDLSLIGFY) [compound 1501]	14
1503 (KTDPNFKNL) [compound 1503]	13
1507 (ATVSAIELEY) [compound 1507]	13
1509 (TLAQVFESF) [compound 1509]	17
1510 (FTDNAPAGHYY) [compound 1510]	15
1511 (RSLSNFQAL) [compound 1511]	17
1512 (QIYKTLLEY) [compound 1512]	21
1514 (EAAELYFRL) [compound 1514]	15
1517 (ATKKALIHF) [compound 1517]	13
1519 (FGMMNQTNY) [compound 1519]	13
1523 (STAQVHLDF) [compound 1523]	14
1528 (KTYTLLTKPY) [compound 1528]	13
1531 (MVFNQLIASY) [compound 1531]	12
1543 (NIYNYDYSF) [compound 1543]	12
1544 (GSLYPTQFDY) [compound 1544]	14
1556 (QVVFHAGSLY) [compound 1556]	13
1566 (ARIYAGQGY) [compound 1566]	14
1567 (QAQEEWNMIL) [compound 1567]	13
1571 (KTVQHIEQY) [compound 1571]	14
1573 (KVIRAHNFI) [compound 1573]	12
1580 (SNMKQFCKI) [compound 1580]	12
1619 (IDFDPLVTFY) [compound 1619]	16
1627 (GTDLYQSAM) [compound 1627]	12
1628 (SAMLEFKKF) [compound 1628]	12
1630 (AMLEFKKFF) [compound 1630]	12
1631 (FTQITRQTF) [compound 1631]	12

Substance	Number of Spots
1633 (ITRQTFMDI) [compound 1633]	14
1648 (RTLMDQPTY) [compound 1648]	14
1649 (TLMDQPTY) [compound 1649]	18
1651 (RFSRPGNNY) [compound 1651]	17
1658 (AFINSTDFLY) [compound 1658]	12
1685 (NINRLMPYF) [compound 1685]	12
1693 (EVYAPYMHY) [compound 1693]	12
1701 (YTGIQSPLF) [compound 1701]	13
1706 (RLQTPIPVY) [compound 1706]	13
1718 (SSELHFYVF) [compound 1718]	15
1736 (VTQRNQNYF) [compound 1736]	13
1749 (TLDFDRMWY) [compound 1749]	15
1750 (SMSYFDGKTEY) [compound 1750]	17
1753 (YFDTFANAM) [compound 1753]	13
1759 (VQLANSSVYY) [compound 1759]	15
1761 (SVYHVQEEL) [compound 1761]	12
1767 (LLDTNTNFY) [compound 1767]	13 and 21
1783 (GMQDGIRWFY) [compound 1783]	13
1810 (KTIFNNVRY) [compound 1810]	13
1814 (YTIHYSMPY) [compound 1814]	17
1823 (YTKFFNCPF) [compound 1823]	25
1824 (SMMDFERVHY) [compound 1824]	14
1828 (RSQTECGPY) [compound 1828]	14
1830 (SVMALAKMY) [compound 1830]	12
1835 (KILGLLLAY) [compound 1835]	21
1836 (GKTMPVEFYY) [compound 1836]	17

Substance	Number of Spots
1840 (SLANHTVKYY) [compound 1840]	14
1841 (SMFKHFDNM) [compound 1841]	17
1852 (HTLIISPEF) [compound 1852]	15
1864 (SMPMSMIGPY) [compound 1864]	13
1873 (KLYTAALGVY) [compound 1873]	12
1875 (ISPRISYQF) [compound 1875]	12
1880 (FLNAYAHKL) [compound 1880]	12
1912 (KQFEMFNMVY) [compound 1912]	12
1923 (RISSELISY) [compound 1923]	13
1941 (AIEEEDIQF) [compound 1941]	12
1950 (ELVDHIFNY) [compound 1950]	16
1952 (LSKNIAAEY) [compound 1952]	17
1955 (SSAELYRKM) [compound 1955]	14
1982 (NAFEWIHFV) [compound 1982]	14
1986 (KINQRSFSF) [compound 1986]	13
1989 (RMHIYETNLY) [compound 1989]	14
1991 (KQELSRLIY) [compound 1991]	29
2037 (MCGKRNCPLY) [compound 2037]	12
2038 (CGKRNCPLYY) [compound 2038]	12
2075 (KSCYPLVFI) [compound 2075]	12
2092 (KAKIAFPPEY) [compound 2092]	17
2118 (MMQTAIQKNYF) [compound 2118]	13
2125 (TAIQKNYFR) [compound 2125]	14
2126 (TAIQKNYFRF) [compound 2126]	13
2127 (AIQKNYFRF) [compound 2127]	15
